Measurements reported in patent US20250011881A1, “MYC-HSF1 DUAL AMPLIFICATION AS A BIOMARKER FOR CANCER TREATMENT” (The Trustees of Indiana University, priority 2023, published 2025).
Values joined by “and” are separate entries in the source; they are usually repeats but may differ in a detail not shown here. Equal values may be shown once. Where a name gives a salt, the structure may show the parent alone.

The molecules below were run on ovarian cancer cells with (OVCAR8, OVCAR4) or without (OVSAHO, CAOV3) MYC-HSF1 amplification (assay: Epigenetic inhibitor drug screen, cell viability (Cell Titer Blue)). Settings: not given.
Type: cell-based

SMILES	Non Amp - AMP (POC) 10 uM [POC]
[NH2][Pt]1([NH2])[O]CC(=O)[O]1 [Nedaplatin]	−10.66
Cc1ccc(-n2sc3ccccc3c2=O)cc1 [PBIT]	−46.19
CC(C)(C)c1nc2c3cc[nH]c(=O)c3c3cc(F)ccc3c2[nH]1 [Pyridone 6]	−0.4008

Same assay, conditions: 10 µM

SMILES	Non Amp - AMP (POC) 10 uM [POC]
COc1ccc(Cn2ccc3ccc(C(=O)NO)cc32)cc1 [PCI 34051]	−4.834

Same assay, conditions: 10 uM, 48 hrs; average relative cell viability (vs 1% DMSO) of non-amplified cells (OVSAHO, CAOV3) minus that of MYC-HSF1 amplified cells (OVCAR8, OVCAR4); positive = greater response in amplified cells

SMILES	Non Amp - AMP (POC) 10 uM [POC]
O=[N+]([O-])c1ccc(Sc2cccc[n+]2[O-])c2nonc12 [NSC228155]	4.767
O=S(=O)(O)c1ccc2cc(N=Nc3cc(S(=O)(=O)O)c4cccnc4c3O)ccc2c1 [NSC 87877]	8.877
C[C@@H]1O[C@@H](CC(=O)O)CC2=C1C(=O)c1c(O)cccc1C2=O [Nanaomycin A]	2.594
CCCCN(Cc1ccc(C(=O)NO)cc1)C(=O)Nc1ccccc1 [Nexturastat A]	23.67
NC(=O)c1cccnc1 [Nicotinamide]	−2.471
CN1CCN(c2ccc(-c3cccc(CN4CCOCC4)c3)cc2NC(=O)c2c[nH]c(=O)cc2C(F)(F)F)CC1 [OICR-9429]	12.58
CCCCCCCCOC(=O)C(O)CCC(=O)O (stereo not shown) [Octyl-a-hydroxyglutarate]	0.5587
CC1COc2c(N3CCN(C)CC3)c(F)cc3c(=O)c(C(=O)O)cn1c23 (stereo not shown) [Ofloxacin]	5.913
O=C(c1cc(Cc2n[nH]c(=O)c3ccccc23)ccc1F)N1CCN(C(=O)C2CC2)CC1 [Olaparib (AZD2281, Ku-0059436), Olaparib]	3.527
Nc1ccccc1NC(=O)CCCCCC(=O)Nc1ccccc1 [PAOA]	29.57
CCCOc1ccc(CCc2nc3cc(-c4c(C)noc4C)ccc3n2CCN2CCOCC2)cc1.Cl [PF-CBP1 hydrochloride]	9.953
O=C([C@@H](Cc1cccc(C(F)(F)F)c1)NS(=O)(=O)c1cc(F)c2c(c1)CCNC2)N1CCCC1 [PFI-2]	−2.63
CCc1cccc(CC)c1NC(=O)N1Cc2n[nH]c(NC(=O)c3ccc(N4CCN(C)CC4)cc3)c2C1 [PHA-680632]	−11.28
CN(C)CC(=O)Nc1ccc2[nH]c(=O)c3ccccc3c2c1.Cl [PJ34 hydrochloride]	3.696
O=C1C(=Cc2cccnc2)C(=O)c2ccccc21 [PRT4165]	1.398
O=C(CBr)c1ccc(O)cc1 [PTP Inhibitor I]	−3.586

SMILES	Non Amp - AMP (POC) 10 uM [POC]
CCC(C)SSc1ncc[nH]1 (stereo not shown) [PX 12]	−7.518
C1=C/COCc2cc(ccc2OCCN2CCCC2)Nc2nccc(n2)-c2cccc(c2)COC/1 [Pacritinib (SB1518), Pacritinib]	−2.391
[H]/N=C(/N)N/C(=N/[H])NCCc1ccccc1 [Phenformin HCl]	7.32
NC(=O)c1ccccn1 [Picolinamide]	20.35
COc1cccc2c1C(=O)c1c(O)c3c(c(O)c1C2=O)C[C@@](O)(C(=O)CO)C[C@@H]3O[C@H]1C[C@H](N)[C@H](O[C@@H]2CCCCO2)[C@H](C)O1 [Pirarubicin]	6.408
CC1=CC(=O)c2c(O)cccc2C1=O [Plumbagin]	4.102
CCN(CC)CCNC(=O)c1ccc(N)cc1 [Procainamide HCl]	4.095
CNNCc1ccc(C(=O)NC(C)C)cc1 [Procarbazine HCl]	1.149
O=C(CCCCCCC(=O)Nc1cccnc1)NO [Pyroxamide]	60.34
CN1CCN(C(=O)CN[C@H]2C[C@@H]2c2ccc(OCc3ccccc3)cc2)CC1.Cl.Cl [RN-1 (hydrochloride)]	−2.198
NC(=O)c1cccc(NC(=O)/C=C/c2c[nH]c3ccccc23)c1 [RSC-133]	26.08
C[C@@H]1O[C@@H](O[C@H]2[C@H](O[C@H]3[C@H](O[C@H]4CC[C@]5(C)[C@H]6CC=C7[C@@H]8CC(C)(C)CC[C@]8(C(=O)O)CC[C@@]7(C)[C@]6(C)CC[C@H]5C4(C)C)OC[C@H](O)[C@@H]3O)O[C@H](CO)[C@@H](O)[C@@H]2O)[C@H](O)[C@H](O)[C@H]1O [Raddeanin A]	2.609
N#Cc1ccc(-c2csc(NN=C3CCCC3)n2)cc1 [Remodelin]	13.34
CN(C)Cc1ccc(S(=O)(=O)n2ccc(/C=C/C(=O)NO)c2)cc1 [Resminostat (hydrochloride), Resminostat]	36.33
Oc1ccc(C=Cc2cc(O)cc(O)c2)cc1 [Resveratrol]	0.9482

Same assay, conditions: 10 uM, 48 hrs; average relative cell viability (vs 1% DMSO) of non-amplified cells (OVSAHO, CAOV3) minus that of MYC-HSF1 amplified cells (OVCAR8, OVCAR4); positive = greater response in amplified cells; 10 µM

SMILES	Non Amp - AMP (POC) 10 uM
O=Nc1ccc(O)c2ncccc12 [NSC 3852]	27.71 POC
Fc1cc(-c2cccc3ncc(-c4cnn(C5CCNCC5)c4)nc23)cc(F)c1CN1CCOCC1 [NVP-BSK805 2HCl]	−12.67 POC
Fc1cc(-c2cccc3ncc(-c4cnn(C5CCNCC5)c4)nc23)cc(F)c1CN1CCOCC1 [NVP-BSK805]	−1.371 POC
Cc1sc2c(c1C)C(c1ccc(Cl)cc1)=N[C@@H](CC(=O)Nc1ccc(O)cc1)c1nnc(C)n1-2 [OTX015]	15.65 POC
CN(C)Cc1c(C(=O)NCCOc2ccc(C(=O)NO)cc2)oc2ccccc12 [PCI 24781]	42.57 POC
COc1ccccc1S(=O)(=O)Nc1ccc2c(c1)CN(C)C(=O)N2 [PFI-1]	9.637 POC
Cl.O=C([C@@H](Cc1cccc(C(F)(F)F)c1)NS(=O)(=O)c1cc(F)c2c(c1)CCNC2)N1CCCC1 [PFI-2 (hydrochloride)]	2.189 POC
O=C(/C=C/N1C[C@H]2C[C@@H]1CN2c1ccccn1)c1ccccc1O [PFI-3]	12.92 POC
COc1ccccc1C(=O)Nc1cc2c(cc1N1CCCC1)n(C)c(=O)n2C [PFI-4]	17.43 POC
Cc1[nH]c2ccccc2c1CCNCc1ccc(/C=C/C(=O)NO)cc1 [Panobinostat]	41.46 POC
O=C(O)C(Cc1c[nH]c2ccccc12)N1C(=O)c2ccccc2C1=O (stereo not shown) [RG108]	17.36 POC
COc1cc(OC)c2c(=O)[nH]c(-c3cc(C)c(OCCO)c(C)c3)nc2c1 [RVX-208]	12.33 POC and 7.058 POC

Same assay, conditions: 10 uM, 48 hrs; average relative cell viability (vs 1% DMSO) of non-amplified cells (OVSAHO, CAOV3) minus that of MYC-HSF1 amplified cells (OVCAR8, OVCAR4); positive = greater response in amplified cells; listed as OTX-015, 10 µM

SMILES	Non Amp - AMP (POC) 10 uM [POC]
Cc1sc2c(c1C)C(c1ccc(Cl)cc1)=N[C@@H](CC(=O)Nc1ccc(O)cc1)c1nnc(C)n1-2 [OTX015]	2.251

Same assay, conditions: 10 uM, 48 hrs; average relative cell viability (vs 1% DMSO) of non-amplified cells (OVSAHO, CAOV3) minus that of MYC-HSF1 amplified cells (OVCAR8, OVCAR4); positive = greater response in amplified cells; listed as PCI-24781 (CRA-024781), 10 µM

SMILES	Non Amp - AMP (POC) 10 uM [POC]
CN(C)Cc1c(C(=O)NCCOc2ccc(C(=O)NO)cc2)oc2ccccc12 [PCI 24781]	28.7

Same assay, conditions: 10 uM, 48 hrs; average relative cell viability (vs 1% DMSO) of non-amplified cells (OVSAHO, CAOV3) minus that of MYC-HSF1 amplified cells (OVCAR8, OVCAR4); positive = greater response in amplified cells; listed as PFI 3, 10 µM

SMILES	Non Amp - AMP (POC) 10 uM [POC]
O=C(/C=C/N1C[C@H]2C[C@@H]1CN2c1ccccn1)c1ccccc1O [PFI-3]	5.077

Same assay, conditions: 10 uM, 48 hrs; average relative cell viability (vs 1% DMSO) of non-amplified cells (OVSAHO, CAOV3) minus that of MYC-HSF1 amplified cells (OVCAR8, OVCAR4); positive = greater response in amplified cells; listed as PFI 4, 10 µM

SMILES	Non Amp - AMP (POC) 10 uM [POC]
COc1ccccc1C(=O)Nc1cc2c(cc1N1CCCC1)n(C)c(=O)n2C [PFI-4]	−0.5403

Same assay, conditions: 10 uM, 48 hrs; average relative cell viability (vs 1% DMSO) of non-amplified cells (OVSAHO, CAOV3) minus that of MYC-HSF1 amplified cells (OVCAR8, OVCAR4); positive = greater response in amplified cells; listed as PFI-1 (PF-6405761), 10 µM

SMILES	Non Amp - AMP (POC) 10 uM [POC]
COc1ccccc1S(=O)(=O)Nc1ccc2c(c1)CN(C)C(=O)N2 [PFI-1]	2.51

Same assay, conditions: 10 uM, 48 hrs; average relative cell viability (vs 1% DMSO) of non-amplified cells (OVSAHO, CAOV3) minus that of MYC-HSF1 amplified cells (OVCAR8, OVCAR4); positive = greater response in amplified cells; listed as Panobinostat (LBH589), 10 µM

SMILES	Non Amp - AMP (POC) 10 uM [POC]
Cc1[nH]c2ccccc2c1CCNCc1ccc(/C=C/C(=O)NO)cc1 [Panobinostat]	27.26

Same assay, conditions: 10 uM, 48 hrs; average relative cell viability (vs 1% DMSO) of non-amplified cells (OVSAHO, CAOV3) minus that of MYC-HSF1 amplified cells (OVCAR8, OVCAR4); positive = greater response in amplified cells; listed as RG 108, 10 µM

SMILES	Non Amp - AMP (POC) 10 uM [POC]
O=C(O)C(Cc1c[nH]c2ccccc12)N1C(=O)c2ccccc2C1=O (stereo not shown) [RG108]	−2.615

Same assay, conditions: listed as PCI-34051, 10 µM

SMILES	Non Amp - AMP (POC) 10 uM [POC]
COc1ccc(Cn2ccc3ccc(C(=O)NO)cc32)cc1 [PCI 34051]	−22.68
